Drawing on patent publication US4220587A, “Amino acid derivatives of 6-(2-amino-2-arylacetamido)penicillanic acids” (Mitsubishi Chemical Industries, Limited, priority 1975, dated 1980), this text covers MIC for 4 compounds.

≈ marks a conversion by molar mass, not a printed value. Like-named read-outs stand apart in the source and are kept apart here. Bounds are passed on as bounds.

Format in all cases: cell-based
Test [1] concerns Pseudomonas aeruginosa M-16. The test is described as follows: MIC, agar dilution, Pseudomonas aeruginosa M-16. The settings on record: M16, 20 h, read-out: Minimum Inhibitory Concentration (MIC). The procedure:
(§1) The compounds of this invention were tested for antibacterial activity according to the following procedure. Nutrient broth and nutrient agar were prepared according to the conventional procedure. […] was used as a vehicle. The stock solution was prepared at 100 μg/ml of the test material in the vehicle. Two-fold dilutions were made with the vehicle and then the diluted stock solution was added to a petri dish and solidified by chilling. Test organisms were grown in the nutrient broth for 20 hours at 37° C. The hardened surface was inoculated with a loopful of the test organism solution containing 1×10^6 cells per milliliter and incubated for 20 hours at 37° C. At the end of this period, growth of the organism was observed. […] The following Table 1 summarizes the activity of representative compounds as active antibacterial agents, and compares them with the prior art compounds and the reference drug Sulbenicillin.
^*3 streptomycin, chloramphenicol and mercury resistant strain derive
Background: In agar dilution the substance is mixed into plates at graded concentrations.

Test [2] has as its system Proteus morgani (IFO 3848). The test is described as follows: MIC, agar dilution, Proteus morgani. The conditions noted are these: Morganella morganii, read-out: Minimum Inhibitory Concentration (MIC). On the procedure:
as §1

Test [3] concerns Proteus mirabilis (IFO 3849). The test is described as follows: MIC, agar dilution, Proteus mirabilis. The conditions noted are these: read-out: Minimum Inhibitory Concentration (MIC). On the procedure:
as §1

Test [4] deals with Proteus vulgaris (IFO 3045). The test is described as follows: MIC, agar dilution, Proteus vulgaris. The settings on record: read-out: Minimum Inhibitory Concentration (MIC). On the procedure: as §1
Test [5] has as its system Pseudomonas aeruginosa (ATCC 15691). The test is described as follows: MIC, agar dilution, Pseudomonas aeruginosa ATCC 15691. The conditions noted are these: read-out: Minimum Inhibitory Concentration (MIC). On the procedure: as §1
In test [6] the test system is Klebsiella pneumoniae (ATCC 25955). The test is described as follows: MIC, agar dilution, Klebsiella pneumoniae. The conditions noted are these: read-out: Minimum Inhibitory Concentration (MIC). The procedure: as §1
Test [7] concerns Pseudomonas aeruginosa M-11. Nature of the test: MIC, agar dilution, Pseudomonas aeruginosa M-11. The settings on record: 20 h, read-out: Minimum Inhibitory Concentration (MIC). The procedure: as §1
^*1 streptomycin resistant strain derived from Pseudomonas aeruginosa

The next test has as its system Staph. aureus (FDA 209P). Nature of the test: MIC, agar dilution, Staph. aureus. The settings on record: Staphylococcus aureus, FDA209P, read-out: Minimum Inhibitory Concentration (MIC). The procedure:
as §1

Test [8] concerns Pseudomonas aeruginosa M-12. Nature of the test: MIC, agar dilution, Pseudomonas aeruginosa M-12. The conditions noted are these: ATCC15692, 20 h, read-out: Minimum Inhibitory Concentration (MIC). On the procedure:
as §1
^*2 chloramphenicol resistant strain derived from Pseudomonas

The next test relates to E. coli (NIHJ). The test is described as follows: MIC, agar dilution, E. coli. The conditions noted are these: Escherichia coli, read-out: Minimum Inhibitory Concentration (MIC). The procedure: as §1
The test system of test [9] is Pseudomonas aeruginosa (ATCC 15692). The test is described as follows: MIC, agar dilution, Pseudomonas aeruginosa ATCC 15692. The settings on record: read-out: Minimum Inhibitory Concentration (MIC). The procedure:
as §1

Setting [10] is: Proteus mirabilis, IFO3849, 20 h.
Setting [11] is: Proteus vulgaris, IFO3045, 20 h.

For the compound `CC1(C)S[C@@H]2[C@H](NC(=O)C(c3ccccc3)S(=O)(=O)O)C(=O)N2[C@H]1C(=O)O` (some centres unmarked) [sulpenicillin, reference compound], the MIC was 25 µg/mL (≈ 60.3 µM) in test [1]; < 3.1 µg/mL in test [2] (IFO3848, Proteus morgani IFO 3848, nutrient agar, 20 hours at 37° C.); < 3.1 µg/mL in [3] (IFO3849, Proteus mirabilis IFO 3849, nutrient agar, 20 hours at 37° C.); < 3.1 µg/mL in test [4] (IFO3045, Proteus vulgaris IFO 3045, nutrient agar, 20 hours at 37° C.); 50 µg/mL (≈ 121 µM) in test [5] (ATCC15691, P. aeruginosa ATCC 15691, nutrient agar, 20 hours at 37° C.); > 100 µg/mL in [6] (ATCC25955, Klebsiella pneumoniae ATCC 25955, nutrient agar, 20 hours at 37° C.). For the same compound, the MIC in test [7] amounted to 25 µg/mL (≈ 60.3 µM); with Staph. aureus (FDA 209P) (Staph. aureus FDA 209P, nutrient agar, 20 hours at 37° C.) it was 3.25 µg/mL (≈ 7.84 µM); in test [8], 25 µg/mL (≈ 60.3 µM); with E. coli (NIHJ) (E. coli NIHJ, nutrient agar, 20 hours at 37° C.) it was 1.25 µg/mL (≈ 3.02 µM).

As for `CC1(C)S[C@@H]2[C@H](NC(=O)[C@H](NC(=O)[C@H]3Cc4ccccc4CN3)c3ccccc3)C(=O)N2[C@H]1C(=O)O` [Compound 15], the MIC was found to be 25 µg/mL (≈ 49.2 µM) in test [1]; 25 µg/mL (≈ 49.2 µM) in [2] (IFO3848, 20 h); 25 µg/mL (≈ 49.2 µM) in test [3] (setting [10]); 25 µg/mL (≈ 49.2 µM) in test [4] (setting [11]); 50 µg/mL (≈ 98.3 µM) in test [5] (ATCC15691, 20 h); 25 µg/mL (≈ 49.2 µM) in [6] (Klebsiella pneumoniae, ATCC25955, 20 h). For the same compound, the MIC in test [7] worked out at 25 µg/mL (≈ 49.2 µM); with Staph. aureus (FDA 209P) (20 h) it was 0.3 µg/mL (≈ 0.59 µM); in [8], 25 µg/mL (≈ 49.2 µM); in the test on E. coli (NIHJ) (20 h) it was 25 µg/mL (≈ 49.2 µM).

`CC1(C)S[C@@H]2[C@H](NC(=O)[C@H](NC(=O)[C@@H]3CCCN3)c3ccc(O)cc3)C(=O)N2[C@H]1C(=O)O` [Compound 4]: the MIC came out at 9 µg/mL (≈ 19.5 µM) in [2] (IFO3848, 20 h); 9 µg/mL (≈ 19.5 µM) in test [3] (setting [10]); 12.5 µg/mL (≈ 27 µM) in test [4] (setting [11]); 50 µg/mL (≈ 108 µM) in test [9] (ATCC15692, P. aeruginosa ATCC 15692, nutrient agar, 20 hours at 37° C.); 1.25 µg/mL (≈ 2.7 µM) in the test with Staph. aureus (FDA 209P) (20 h); 25 µg/mL (≈ 54.1 µM) in the test with E. coli (NIHJ) (20 h).

`CC1(C)S[C@@H]2[C@H](NC(=O)[C@H](NC(=O)[C@H]3CCCN3)c3ccc(O)cc3)C(=O)N2[C@H]1C(=O)O` [Compound 3, 6-[D-2-(D-prolylamino)-2-(4-hydroxyphenyl)acetamido]penicillanic acid monohydrate]: the MIC in test [2] (IFO3848, 20 h) was found to be 3.1 µg/mL; in test [3] (setting [10]) it was 2.2 µg/mL; in test [4] (setting [11]), 6.2 µg/mL; in [9] (ATCC15692, 20 h), 6.2 µg/mL; in the test on Staph. aureus (FDA 209P) (20 h), 0.9 µg/mL; in the test on E. coli (NIHJ) (20 h) it was 6.2 µg/mL.
